For orientation: IC50 means the concentration that gives 50% inhibition. Low readings indicate greater potency, high ones weaker potency.

The record followed here is patent US10899769B2, “Imidazopiperazinone inhibitors of transcription activating proteins” (Board of Regents, The University of Texas System, priority 2018, dated 2021).

Assay [1] has as its target GST-CBP(1081-1197) bromodomain (Homo sapiens (Human), UniProt Q92793). The assay is described as follows: CBP AlphaScreen Assay. Particulars: binding to biotin-H4(1-21) Ac-K5/8/12/16. In outline:
(§1)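 AlphaScreen binding of GST-bromodomain to biotin-H4(1-21) Ac-K5/8/12/16: 5 nM CBP with 20 nM peptide, or 2.5 nM BRD4 with 10 nM peptide, in 50 mM HEPES 7.5, […], 1 mM TCEP, 0.003% Tween-20. Compound preincubated 30 min, then beads 2 h, room temperature. IC50 from variable-slope fit.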
In general terms: In Alpha technology, singlet oxygen from a donor bead excites a nearby acceptor bead.

A further assay addresses BRD4(49-170) bromodomain (Homo sapiens (Human), UniProt O60885). The assay is described as follows: BRD4 AlphaScreen Assay. Particulars: binding to biotin-H4(1-21) Ac-K5/8/12/16. In outline:
as §1

GST-CBP(1081-1197) bromodomain, sequence (Q92793 1081-1197): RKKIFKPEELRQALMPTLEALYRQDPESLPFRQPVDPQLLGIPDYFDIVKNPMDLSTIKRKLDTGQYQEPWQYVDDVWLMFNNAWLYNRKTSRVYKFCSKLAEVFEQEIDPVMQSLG

Turning to `C[C@@H]1C(=O)N(C)Cc2c(-c3cccc4nc(-c5ccn(C)n5)c(C(F)F)cc34)nc(C3CCOCC3)n21` [Example 89a, (R)-1-(3-(difluoromethyl)-2-(1-methyl-1H-pyrazol-3-yl)quinolin-5-yl)-5,7-dimethyl-3-(tetrahydro-2H-pyran-4-yl)-7,8-dihydroimidazo[1,5-a] pyrazin-6(5H)-one], the IC50 is 1 nM in assay [1] and 101 nM at BRD4(49-170) bromodomain.
With `C[C@H]1C(=O)N(C)Cc2c(-c3cccc4nc(-c5ccn(C)n5)c(C(F)F)cc34)nc(C3CCOCC3)n21` [Example 89b, (S)-1-(3-(difluoromethyl)-2-(1-methyl-1H-pyrazol-3-yl)quinolin-5-yl)-5,7-dimethyl-3-(tetrahydro-2H-pyran-4-yl)-7,8-dihydroimidazo[1,5-a] pyrazin-6(5H)-one], the IC50 in assay [1] was 482 nM; on BRD4(49-170) bromodomain, 20800 nM.
Regarding `CN1Cc2c(-c3cccc4nc(-c5cnn(C)c5)c(C#N)cc34)nc(C3CCOCC3)n2CC1=O` [Example 92, 2-(1-methyl-1H-pyrazol-4-yl)-5-(7-methyl-6-oxo-3-(tetrahydro-2H-pyran-4-yl)-5,6,7,8-tetrahydroimidazo[1,5-a]pyrazin-1-yl)quinoline-3-carbonitrile], the half-inhibitory concentration (IC50) in assay [1] amounted to 63 nM; at BRD4(49-170) bromodomain it was 25000 nM.
On to `CN1Cc2c(-c3cccc4nc(-c5cnn(C)c5)c(C(F)F)cc34)nc(C3CCOCC3)n2CC1=O` [Example 93, 1-(3-(difluoromethyl)-2-(1-methyl-1H-pyrazol-4-yl)quinolin-5-yl)-7-methyl-3-(tetrahydro-2H-pyran-4-yl)-7,8-dihydroimidazo [1,5-a] pyrazin-6(5H)-one], for which the IC50 turned out to be 357 nM in assay [1] and 25000 nM at BRD4(49-170) bromodomain.
The like results for `CN1Cc2c(-c3cccc4cc(N5CCOCC5)ncc34)nc(C3CCOCC3)n2CC1=O` [Example 94, 7-methyl-1-(3-morpholinoisoquinolin-8-yl)-3-(tetrahydro-2H-pyran-4-yl)-7,8-dihydroimidazo[1,5-a] pyrazin-6(5H)-one] were, in that order, 145 nM and ≥ 25000 nM.
The corresponding values for `CN1Cc2c(-c3cccc4nc(-c5cnn(C)c5)c(C(F)(F)F)cc34)nc(C3CCOCC3)n2CC1=O` [Example 95, 7-methyl-1-(2-(1-methyl-1H-pyrazol-4-yl)-3-(trifluoromethyl)quinolin-5-yl)-3-(tetrahydro-2H-pyran-4-yl)-7,8-dihydroimidazo[1,5-a] pyrazin-6(5H)-one] are 31 nM and 10600 nM.
On to `Cc1nn(C)cc1-c1cc2cccc(-c3nc(C4CCOCC4)n4c3CN(C)C(=O)C4)c2cn1` [Example 96, 1-(3-(1,3-dimethyl-1H-pyrazol-4-yl)isoquinolin-8-yl)-7-methyl-3-(tetrahydro-2H-pyran-4-yl)-7,8-dihydroimidazo[1,5-a] pyrazin-6(5H)-one], for which the IC50 amounted to 181 nM in assay [1] and 12600 nM at BRD4(49-170) bromodomain.
As to `Cc1nn(C)cc1-c1cc2ccc(F)c(-c3nc(C4CCOCC4)n4c3CN(C)C(=O)C4)c2cn1` [Example 97, 1-(3-(1,3-dimethyl-1H-pyrazol-4-yl)-7-fluoroisoquinolin-8-yl)-7-methyl-3-(tetrahydro-2H-pyran-4-yl)-7,8-dihydroimidazo[1,5-a] pyrazin-6(5H)-one], the half-maximal inhibitory concentration (IC50) was 323 nM in assay [1] and 25000 nM at BRD4(49-170) bromodomain.
Regarding `CN1Cc2c(-c3cccc4cc(C5CCOCC5)ncc34)nc(C3CCOCC3)n2CC1=O` [Example 99, 7-methyl-3-(tetrahydro-2H-pyran-4-yl)-1-(3-(tetrahydro-2H-pyran-4-yl)isoquinolin-8-yl)-7,8-dihydroimidazo[1,5-a] pyrazin-6(5H)-one], the results for the IC50 (in assay [1]; on BRD4(49-170) bromodomain) were 45 nM and 18100 nM, respectively.
The like results for `CN1Cc2c(-c3c(F)ccc4cc(C5CCOCC5)ncc34)nc(C3CCOCC3)n2CC1=O` [Example 101, 1-(7-fluoro-3-(tetrahydro-2H-pyran-4-yl)isoquinolin-8-yl)-7-methyl-3-(tetrahydro-2H-pyran-4-yl)-7,8-dihydroimidazo[1,5-a] pyrazin-6(5H)-one] were, in that order, 219 nM and 25000 nM.
Consider `Cc1ccc2cc(-c3ccn(C)n3)ncc2c1-c1nc(C2CCOCC2)n2c1CN(C)C(=O)C2C` (centres unmarked) [Example 105, 5,7-dimethyl-1-(7-methyl-3-(1-methyl-1H-pyrazol-3-yl)isoquinolin-8-yl)-3-(tetrahydro-2H-pyran-4-yl)-7,8-dihydroimidazo[1,5-a] pyrazin-6(5H)-one], for which the 50% inhibitory concentration (IC50) in assay [1] is 27 nM; on BRD4(49-170) bromodomain, 3480 nM.
With `CN1Cc2c(N3CCCc4cc(-c5cnn(C)c5)c(C(F)F)cc43)nc(C3CC3)n2CC1=O` [Example 106, 3-cyclopropyl-1-(7-(difluoromethyl)-6-(1-methyl-1H-pyrazol-4-yl)-3,4-dihydroquinolin-1(2H)-yl)-7-methyl-7,8-dihydroimidazo[1,5-a] pyrazin-6(5H)-one], the IC50 was found to be 9 nM in assay [1] and 5700 nM at BRD4(49-170) bromodomain.
The like results for `CN1Cc2c(-c3ccc4c(c3)c(-c3cnn(C)c3)nn4C)nc(C3CC3)n2CC1=O` [Example 107, 3-cyclopropyl-7-methyl-1-(1-methyl-3-(1-methyl-1H-pyrazol-4-yl)-1H-indazol-5-yl)-7,8-dihydroimidazo [1,5-a] pyrazin-6(5H)-one] were, in that order, 29 nM and 6820 nM.
As for `CN1Cc2c(-c3cccc4nc(-c5cnn(C)c5)c(C(F)F)cc34)nc(C3CC3)n2CC1=O` [Example 108, 3-cyclopropyl-1-(3-(difluoromethyl)-2-(1-methyl-1H-pyrazol-4-yl)quinolin-5-yl)-7-methyl-7,8-dihydroimidazo[1,5-a] pyrazin-6(5H)-one], the IC50 was determined as 114 nM in assay [1] and 18300 nM at BRD4(49-170) bromodomain.
With `CC1C(=O)N(C)Cc2c(-c3cccc4cc(-c5cnn(C)c5)ncc34)nc(C3CCOCC3)n21` (centres unmarked) [Example 109, 5,7-dimethyl-1-(3-(1-methyl-1H-pyrazol-4-yl)isoquinolin-8-yl)-3-(tetrahydro-2H-pyran-4-yl)-7,8-dihydroimidazo[1,5-a] pyrazin-6(5H)-one], the IC50 came out at 2 nM in assay [1] and 341 nM on BRD4(49-170) bromodomain.
For `C[C@H]1C(=O)N(C)Cc2c(-c3cccc4nc(-c5cnn(C)c5)c(C(F)F)cc34)nc(C3CC3)n21` [Example 110a, (S)-3-cyclopropyl-1-(3 (difluoromethyl)-2-(1-methyl-1H-pyrazol-4-yl)quinolin-5-yl)-5,7-dimethyl-7,8-dihydroimidazo[1,5-a] pyrazin-6(5H)-one], the IC50 in assay [1] turned out to be 453 nM; on BRD4(49-170) bromodomain, 9250 nM.
With `C[C@@H]1C(=O)N(C)Cc2c(-c3cccc4nc(-c5cnn(C)c5)c(C(F)F)cc34)nc(C3CC3)n21` [Example 110b, (R)-3-cyclopropyl-1-(3 (difluoromethyl)-2-(1-methyl-1H-pyrazol-4-yl)quinolin-5-yl)-5,7-dimethyl-7,8-dihydroimidazo[1,5-a] pyrazin-6(5H)-one], the values for the IC50 (in assay [1]; on BRD4(49-170) bromodomain) were 1 nM and 407 nM, respectively.
The like results for `C[C@H]1C(=O)N(C)Cc2c(-c3cccc4cc(-c5cnn(C)c5)ncc34)nc(C3CC3)n21` [Example 111a, (S)-3-cyclopropyl-5,7-dimethyl-1-(3-(1-methyl-1H-pyrazol-4-yl)isoquinolin-8-yl)-7,8-dihydroimidazo[1,5-a] pyrazin-6(5H)-one] were, in that order, 510 nM and 25000 nM.
Consider `C[C@@H]1C(=O)N(C)Cc2c(-c3cccc4cc(-c5cnn(C)c5)ncc34)nc(C3CC3)n21` [Example 111b, (R)-3-cyclopropyl-5,7-dimethyl-1-(3-(1-methyl-1H-pyrazol-4-yl)isoquinolin-8-yl)-7,8-dihydroimidazo[1,5-a] pyrazin-6(5H)-one], for which the IC50 in assay [1] was found to be 1 nM; at BRD4(49-170) bromodomain it was 89 nM.
